Source: patent US11884652B2, “Tetrazole derivatives as TRPA1 inhibitors” (Boehringer Ingelheim International GmbH, priority 2020, dated 2024)
pIC50: −log10 of the molar value.

Key:
human TRPA1 ion channel = biological target: T1, human TRPA1 ion channel (Homo sapiens, UniProt O75762); experiment: Assay A: TRPA1 assay (FLIPR, AITC-induced calcium, HEK293 cells); type: cell-based; conditions: read-out: hTRPA1 IC50
T1 construct: host or cells: HEK293
Method: A human HEK293 cell line over-expressing the human TRPA1 ion channel (Perkin Elmer, Product No. AX-004-PCL) is used as a test system for compound efficacy and potency. Compound activity is determined by measuring the effect of compounds on intracellular calcium concentration induced by AITC (Allylisothiocyanat) agonism in a FLIPRtetra system (Molecular Devices).
The cells are obtained as frozen cells in cryo-vials and stored until use at −150° C. Cells are grown in culture medium (MEM/EBSS medium with 10% FCS and 0.4 mg/ML Geneticin). […] For sub-culturing cells are detached from flasks by Versene. At the day before the assay, cells are detached, washed twice with medium (MEM/EBSS medium with 10% FCS) and 20000 cells in 20 μl/well are seeded to Poly D-Lysin biocoated 384-well plates (black, clear bottom, Cat. 356697) from Corning. Plates are incubated for 24 hours at 37° C./5% CO2 before use in the assay.
The test compounds are dissolved in 100% DMSO at a concentration of 10 mM and in a first step diluted in DMSO to a concentration of 5 mM, followed by serial dilution steps in 100% DMSO. Dilution factor and number of dilution steps may vary according to needs. Typically 8 different concentrations by 1:5 dilutions are prepared, further intermediate dilutions (1:20) of the substances are carried out with HBSS/HEPES buffer (1×HEPES, Cat. 14065 from Gibco, 20 mM HEPES, Cat. 83264 from SIGMA, 0.1% BSA Cat. 11926 from Invitrogen, pH 7.4
At the assay day cells are washed 3× with assay puffer, 20 μL buffer remaining in the wells after washing. 10 μL Ca6 kit (Cat. R8191 MolecularDevices) loading buffer in HBSS/HEPES is added to the cells and the plates are incubated with lid for 120 minutes at 37°/5% CO2. 10 μL of compound or controls in HBSS/HEPES buffer/5% DMSO from the intermediate dilution plate are carefully added to the wells. […] Finally 10 μL of the agonist AITC 50 μM dissolved in HBSS/HEPES buffer/0.05% DMSO (final concentration 10 μM) is added to the wells followed by an additional read on the FLIPRtetra device for 10 minutes. The area under the signal curve (AUC) after AITC addition is used for IC50/% inhibition calculations
Data Evaluation and Calculation:
Each assay microtiter plate contains wells with vehicle (1% DMSO) controls instead of compound as controls for AITC induced luminescence (100% CTL; high controls) and wells with vehicle controls without AITC as controls for non-specific changes in luminescence (0% CTL; low controls).
The analysis of the data is performed by the calculation of the area under signal curve of the individual wells. Based on this values the % value for the measurement of each substance concentration is calculated (AUC(sample)−AUC(low))*100/(AUC(high)−AUC(low)) using MegaLab software (in house development). The IC50 values are calculated from the % control values using MegaLab software. Calculation: [y=(ad)/(1+(x/c)^b)+d], a=low value, d=high value; x=conc M; c=IC50 M; b=hill; y=% ctrl

[1] = Assay B: Microsomal clearance; type: in vitro ADME, human; conditions: pooled liver microsomes 1 mg/ml, 1 μM compound, NADPH, 37° C.; clearance as % of hepatic blood flow
Method: Assay B: Microsomal Clearance:
The metabolic degradation of the test compound is assayed at 37° C. with pooled liver microsomes. The final incubation volume of 100 μl per time point contains TRIS buffer pH 7.6 at RT (0.1 M), magnesium chloride (5 mM), microsomal protein (1 mg/ml) and the test compound at a final concentration of 1 μM.
Following a short preincubation period at 37° C., the reactions are initiated by addition of beta-nicotinamide adenine dinucleotide phosphate, reduced form (NADPH, 1 mM) and terminated by transferring an aliquot into solvent after different time points (0, 5, 15, 30, 60 min). Additionally, the NADPH-independent degradation is monitored in incubations without NADPH, terminated at the last time point. The [%] remaining test compound after NADPH independent incubation is reflected by the parameter c(control) (metabolic stability). The quenched incubations are pelleted by centrifugation (10000 g, 5 min).
An aliquot of the supernatant is assayed by LC-MS/MS for the amount of parent compound. The half-life (t½ INVITRO) is determined by the slope of the semilogarithmic plot of the concentration-time profile.
The intrinsic clearance (CL_[…]) is calculated by considering the amount of protein in the incubation: CL_[…] [μl/min/mg protein]=(Ln 2/(half-life [min]*protein content [mg/ml]))*1000 CL_[…]_INVIVO [ml/min/kg]=(CL_[…] [μL/min/mg protein]×MPPGL [mg protein/g liver]×liver factor [g/kg bodyweight])/1000 Qh[%]=CL[ml/min/kg]/hepatic blood flow [ml/min/kg])
(§1) Hepatocellularity, human: 120×10e6 cells/g liver
(§2) Liver factor, human: 25.7 g/kg bodyweight
(§3) Blood flow, human: 21 ml/(min×kg)

[2] = Assay C: Hepatocyte clearance; type: in vitro ADME, human; conditions: hepatocyte suspension, 1 μM compound, 6 h; predicted clearance as % of hepatic blood flow
Method: Assay C: Hepatocyte Clearance
The metabolic degradation of the test compound is assayed in a hepatocyte suspension. Hepatocytes (cryopreserved) are incubated in Dulbecco's modified eagle medium (supplemented with 3.5 μg glucagon/500 mL, 2.5 mg insulin/500 mL and 3.75 mg/500 mL hydrocortison) containing 5% or 50% species serum.
The cells are incubated for six hours (incubator, orbital shaker) and samples ([…]) are taken at 0, 0.5, 1, 2, 4 and 6 hours. Samples are transferred into acetonitrile and pelleted by centrifugation (5 min). The supernatant is transferred to a new 96-deepwell plate, evaporated under nitrogen and resuspended.
Decline of Parent Compound is Analyzed by HPLC-MS/MS
CLint is calculated as follows CL_[…]=Dose/AUC=(C0/CD)/(AUD+clast/k)×1000/60. C0: initial concentration in the incubation [μM], CD: cell density of vital cells [10e6 cells/mL], AUD: area under the data [μM×h], clast: concentration of last data point [μM], k: slope of the regression line for parent decline [h−1].
The calculated in vitro hepatic intrinsic clearance can be scaled up to the intrinsic in vivo hepatic Clearance and used to predict hepatic in vivo blood clearance (CL) by the use of a liver model (well stirred model). CL_[…]_INVIVO [ml/min/kg]=(CL_[…] [μL/min/10e6 cells]×hepatocellularity [10e6 cells/g liver]×liver factor [g/kg bodyweight])/1000 CL[ml/min/kg]=CL_[…]_INVIVO [ml/min/kg]×hepatic blood flow [ml/min/kg]/(CL_[…]_INVIVO [ml/min/kg]+hepatic blood flow [ml/min/kg]) Qh[%]=CL[ml/min/kg]/hepatic blood flow [ml/min/kg])
as §1, §2, §3

T1 sequence (O75762 whole entry): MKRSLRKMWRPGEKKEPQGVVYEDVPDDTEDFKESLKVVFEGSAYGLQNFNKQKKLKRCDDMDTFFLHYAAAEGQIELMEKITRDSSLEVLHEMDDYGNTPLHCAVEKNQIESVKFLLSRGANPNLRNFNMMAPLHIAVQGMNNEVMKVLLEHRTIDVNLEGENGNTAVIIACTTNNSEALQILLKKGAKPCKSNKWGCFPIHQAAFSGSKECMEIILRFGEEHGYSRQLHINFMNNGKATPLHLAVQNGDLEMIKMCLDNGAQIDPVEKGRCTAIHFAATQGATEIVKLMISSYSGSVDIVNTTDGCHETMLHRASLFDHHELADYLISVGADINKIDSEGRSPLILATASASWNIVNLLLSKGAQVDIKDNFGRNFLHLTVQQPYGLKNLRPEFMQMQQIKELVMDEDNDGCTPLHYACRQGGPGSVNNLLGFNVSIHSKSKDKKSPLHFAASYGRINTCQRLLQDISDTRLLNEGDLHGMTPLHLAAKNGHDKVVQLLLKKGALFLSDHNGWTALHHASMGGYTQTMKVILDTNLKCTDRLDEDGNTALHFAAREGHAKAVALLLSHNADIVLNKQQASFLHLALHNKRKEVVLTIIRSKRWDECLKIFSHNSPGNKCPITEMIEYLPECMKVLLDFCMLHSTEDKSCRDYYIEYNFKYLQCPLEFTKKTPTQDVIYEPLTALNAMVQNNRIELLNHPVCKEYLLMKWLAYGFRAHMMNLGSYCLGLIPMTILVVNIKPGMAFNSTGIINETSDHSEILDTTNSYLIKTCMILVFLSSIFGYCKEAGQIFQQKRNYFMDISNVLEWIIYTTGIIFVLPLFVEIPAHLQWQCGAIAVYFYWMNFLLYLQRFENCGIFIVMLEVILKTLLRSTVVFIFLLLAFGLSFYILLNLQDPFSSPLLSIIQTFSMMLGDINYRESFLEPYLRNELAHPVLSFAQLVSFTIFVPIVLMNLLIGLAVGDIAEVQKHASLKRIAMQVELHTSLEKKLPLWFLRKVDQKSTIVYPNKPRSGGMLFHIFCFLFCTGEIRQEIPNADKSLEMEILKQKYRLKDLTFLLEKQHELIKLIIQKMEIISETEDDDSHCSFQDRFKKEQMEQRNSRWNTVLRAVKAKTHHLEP

Row | SMILES | pIC50 (human TRPA1 ion channel) | human LM [% Qh] [1] [% Qh] | human Hepatocytes [% Qh] [2] [% Qh]
1 | COc1ccc([C@@H](O)Cn2nnc(Cn3cc(C(N)=O)c(=O)n(C)c3=O)n2)cc1 [Example 16] | 6.80 | <23 | <4
2 | CCNC(=O)c1cn(Cc2nnn(C[C@H](O)c3ccc(Cl)cc3)n2)c(=O)n(C)c1=O [Example 34] | 6.53 | 43 | 44
3 | Cn1c(=O)c(C(N)=O)cn(Cc2nnn(C[C@H](O)c3cc(Cl)c(Cl)s3)n2)c1=O [Example 5] | 7.59 | <23 | 43
4 | Cn1c(=O)c(C(N)=O)cn(Cc2nnn(C[C@H](O)c3cc4ccccc4s3)n2)c1=O [Example 2] | 7.74 | <23 | 13
5 | NC(=O)c1cn(Cc2nnn(C[C@H](O)c3ccc(Cl)cc3)n2)c(=O)n(CC2CC2)c1=O [Example 20] | 7.19 | <23 | 15
6 | Cn1c(=O)c(C(=O)NCCS(C)(=O)=O)cn(Cc2nnn(C[C@H](O)c3ccc(Cl)cc3)n2)c1=O [Example 28] | 6.73 | <23 | <4
7 | Cn1c(=O)c(C(=O)NCCn2cccn2)cn(Cc2nnn(C[C@H](O)c3ccc(Cl)cc3)n2)c1=O [Example 35] | 7.48 | <23 | 19
8 | Cn1c(=O)c(C(N)=O)cn(Cc2nnn(C[C@H](O)c3ccc(Cl)cc3)n2)c1=O [Example 1, 1-({2-[(2R)-2-(4-chlorophenyl)-2-hydroxyethyl]-2H-1,2,3,4-tetrazol-5-yl}methyl)-3-methyl-2,4-dioxo-1,2,3,4-tetrahydropyrimidine-5-carboxamide] | 7.40 | <23 | <4
9 | Cn1c(=O)c(C(N)=O)cn(Cc2nnn(C[C@H](O)c3ccc(C#N)s3)n2)c1=O [Example 14] | 6.81 | <23 | 4
10 | Cn1c(=O)c(C(=O)NCCn2ccnc2)cn(Cc2nnn(C[C@H](O)c3ccc(Cl)cc3)n2)c1=O [Example 29] | 6.64 | 53 | 27
